Assay results reported in patent US8481457B2, “Method for the improved use of the production potential of transgenic plants” (priority 2007, dated 2013).

How the values were obtained:
Type in all cases: in vivo
[1] = system: larvae of the beet armyworm (Spodoptera exigua); assay: Example 8: Spodoptera exigua on Maize, dip application, kill in %; details: 100 ppm
Procedure: (§1) Pots with in each case 5 transgenic maize plants having Coleoptera, Lepidoptera and/or herbicide resistance (cultivars LH332RR×LH324BT, LH244RR×LH324, HC33CRW×LH287BTCRW and TR47×TR 7322 BT) are treated in 2 replications against larvae of the beet armyworm (Spodoptera exigua). Application is carried out by dip application with the respective active compound at the desired application rate.
(§2) After the desired period of time, the kill in % is determined. 100% means that all caterpillars have been killed; 0% means that none of the caterpillars have been killed.

[2] = system: armyworm (Spodoptera frugiperda); assay: Example 9: Spodoptera frugiperda on Maize, dip application, kill in %; details: 100 ppm
Procedure: as §1, with “HC33CRW×LH287BTCRW,” for “LH332RR×LH324BT, LH244RR×LH324, HC33CRW×LH287BTCRW and”, “against” for “against larvae of”, “the” for “the beet”, “frugiperda).” for “exigua).”
as §2

[3] = system: larvae of the cotton bollworm (Heliothis armigera); assay: Example 5: Heliothis armigera on Cotton (DP444 BG/RR), dip application, kill in %
Procedure: Individually potted transgenic cotton plants with Lepidoptera resistance and herbicide resistance (cultivar DP444 BG/RR) are treated in 2 replications against larvae of the cotton bollworm (Heliothis armigera). Application is carried out by dip application with the respective active compound at the desired application rate.
as §2

[4] = system: armyworm (Spodoptera frugiperda); assay: Example 10: Spodoptera frugiperda on Maize (Drench Application), kill in %; details: 100 ppm
Procedure: Pots with in each case 5 transgenic maize plants having Coleoptera. Lepidoptera and/or herbicide resistance (cultivars HC33CRW×LH287BTCRW, LH332RR×LH324BT, LH24-4RR×LH324 and FR 1064LL×FR 2108) are treated in 2 replications against the armyworm (Spodoptera frugiperda). Application is carried out by drench application with the respective active compound at the desired application rate.
as §2

[5] = system: cotton aphid (Aphis gossypii); assay: Example 4: Aphis gossypii on Cotton (DP444 BG/RR), dip application, kill in %; details: 0.8 ppm
Procedure: Individually potted transgenic cotton plants with Lepidoptera resistance and herbicide resistance (cultivar DP444 BG/RR), which are populated by a mixed population of the cotton aphid (Aphis gossypii) are treated by dip application with the respective active compound.
After the desired period of time, the kill in % is determined. 100% means that all aphids have been killed; 0% means that none of the aphids have been killed.

[6] = system: larvae of the banded cucumber beetle (Diabrotica balteata); assay: Example 7: Diabrotica balteata on Maize, drench application, kill in %; details: 100 ppm
Procedure: Pots with in each case 5 transgenic maize plants having Coleoptera, Lepidoptera and/or herbicide resistance (cultivars LH244RR×LH324 and HCL 201CRW2RR2×LH 324) are treated in 2 replications against larvae of the banded cucumber beetle (Diabrotica balteata). Application is carried out by drench application with the respective active compound at the desired application rate.
After the desired period of time, the kill in % is determined. 100% means that all beetle larvae have been killed; 0% means that none of the beetle larvae have been killed.

[7] = system: armyworm (Spodoptera frugiperda); assay: Example 6: Spodoptera frugiperda on Cotton (DP444 BG/RR), dip application, kill in %
Procedure: Individually potted transgenic cotton plants with Lepidoptera resistance and herbicide resistance (cultivar DP444 BG/RR) are treated in 2 replications against the armyworm (Spodoptera frugiperda). Application is by dip application with the respective active compound at the desired application rate.
as §2

| SMILES | Kill rate in % after 4d (found) [1] [%] | Kill rate in % after 4d (found) [2] [%] | Kill rate in % after 4d (found) ([3]; 100 ppm) [%] | Kill rate in % after 6d (found) [4] [%] | Kill rate in % after 6d (found) ([5]; after 6 d) [%] | Kill rate in % after 1d (found) ([2]; after 1 d) [%] | Kill rate in % after 10d (found) [6] [%] | Kill rate in % after 4d (found) ([7]; 20 ppm, after 4 d) [%] | Kill rate in % after 1d (found) ([5]; after 1 d) [%] | Kill rate in % after 4d (found) ([3]; 20 ppm) [%] | Kill rate in % after 6d (found) ([7]; 100 ppm, after 6 d) [%] |
| --- | --- | --- | --- | --- | --- | --- | --- | --- | --- | --- | --- |
| O=C1C=C(N(CCF)Cc2ccc(Cl)nc2)CO1 [Compound I-4, 4-{[(6-chloropyrid-3-yl)methyl](2-fluoroethyl)amino}furan-2(5H)-one] | 0 | 0 | 0 | 15 | 15 |  |  |  |  |  |  |
| O=C1C=C(N(Cc2ccc(Cl)nc2)CC(F)F)CO1 [Compound I-5, 4-{[(6-chloropyrid-3-yl)methyl](2,2-difluoroethyl)amino}furan-2(5H)-one] |  | 10 |  |  |  | 0 | 45 | 0 | 40 |  |  |
| CN(Cc1cnc(Cl)c(F)c1)C1=CC(=O)OC1 [Compound I-6, 4-{[(6-chloro-5-fluoropyrid-3-yl)methyl](methyl)amino}furan-2(5H)-one] | 0 | 0 |  | 0 |  |  |  |  |  | 0 | 20 |
| CN(Cc1ccc(Cl)nc1)C1=CC(=O)OC1 [Compound I-10, 4-{[(6-chloropyrid-3-yl)methyl](methyl)amino}furan-2(5H)-one] | 10 |  |  | 0 |  |  |  |  |  |  |  |
